Reference: paper PMC6238005, “Sigma-2 Receptor/TMEM97 and PGRMC-1 Increase the Rate of Internalization of LDL by LDL Receptor through the Formation of a Ternary Complex” (Scientific Reports, 2018)
Read-outs that look alike come from different tables or passages of the source.

Key:
σ2R [1] = biological target: T1, σ2R (Homo sapiens, UniProt Q5BJF2); conditions: cited from earlier work; for Kd: no reference given
T1 construct: cell membranes were incubated with [^3H]DTG; endogenous in cells; host or cells: HeLa control clone (non-specific CRISPR/Cas9 plasmid plus lentiCas9-Blast), membrane preparation
T1 sequence (Q5BJF2 whole entry): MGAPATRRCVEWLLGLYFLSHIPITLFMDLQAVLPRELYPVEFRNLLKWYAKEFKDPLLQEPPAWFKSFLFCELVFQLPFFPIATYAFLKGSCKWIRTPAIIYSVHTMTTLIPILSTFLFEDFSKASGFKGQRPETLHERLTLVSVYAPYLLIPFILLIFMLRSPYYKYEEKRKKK

HeLa cells = experiment: Radiolabeled LDL uptake assay; assay type: cell-based; conditions: control HeLa cells, ligands 1 nM - 500 nM
Experimental: Radiolabeled LDL was prepared by incubating human LDL (50 μg/mL) (LP2, Millipore) with [^3H]cholesterol (final concentration 3 μCi/mL) in serum-free MEM for 24 hours at 37 °C, filtered using a 0.2 μm filter, and used immediately. Care was taken not to vortex LDL to avoid aggregation of particles.
Cells were plated on 6-well plates (1 × 10^5 cells per well) or for 96-well plates (1 × 10^4 cells per well) in MEM with 10% FBS, 100 I.U./ml penicillin, 100 µg/ml streptomycin, 2mM L-glutamine, and 1X MEM non-essential amino acids. After 24 hours, media was removed and cells were incubated with MEM containing 10% lipoprotein-depleted serum (LPDS) (AAJ65182AMG, Fisher Scientific) for an additional 24 hours. […] Cells were washed 3 times in PBS, incubated with scintillation fluid overnight, and counts per minute (cpm) were determined using a scintillation counter MicroBeta[2] Microplate counter 2450.

[2] = system: residual DTG binding site; experiment: Saturation binding on TMEM97 KO HeLa cell membranes; conditions: for binding to TMEM97 KO HeLa cells: TMEM97 KO versus control, all three guide RNA sequences; for Kd: TMEM97 KO/Cas9 HeLa cell membranes, saturation binding, N.B. = no binding
Experimental: (§1) For the cell membrane preparation for receptor binding, the cell pellets were taken out from the freezer, rinsed with 10 mL ice-cold PBS solution, and homogenized by using Wheaton overhead stirrer (120 Vac Overhead Stirrer, Millville, NJ, USA) at the speed of 2 for 30 sec. Then the cell solution was transferred to a 50 mL conical tube and centrifuged for 20 min at 31,000 × g, 4 °C. After centrifugation, the supernatant was discarded and the pellets were resuspended in 1 mL ice-cold PBS solution and stored at −80 °C freezer.
(§2) After incubation, the bound ligands were collected with a M-24 Brandel filtration system (Brandel, Gaithersburg, MD, USA) on the glass fiber papers (Whatman grade 934-AH, GE Healthcare Bio-Sciences, Pittsburgh, PA), and counted with a MicroBeta[2] Microplate counter 2450 or Wizard2 Automatic Gamma Counter 2470. All the Kd and Bmax values were calculated from a nonlinear regression method with Prism, and the protein concentrations were determined by the method of Lowry et al.[4] with BSA as a standard.

[3] = system: residual DTG binding site; experiment: Saturation binding on TMEM97/PGRMC1 double KO HeLa cell membranes; conditions: Double KO/Cas9 HeLa cell membranes, N.B. = no binding
Experimental: as §1, §2

σ2R [4] = biological target: T1, σ2R; experiment: Saturation binding on control (Scramble/Cas9) HeLa cell membranes
Experimental: as §1, §2

σ2R [5] = biological target: T1, σ2R; experiment: Saturation binding on PGRMC1 KO HeLa cell membranes; conditions: PGRMC1 KO/Cas9 HeLa cell membranes
Experimental: as §1, §2

[6] = σ2R, ligands previously described, read-out: Kd
[7] = control (Cas9) HeLa cell membranes, Supplementary Figure 2, duplicates, n=3

## Cc1ccc2c(c1)[C@H]1CN(C)CC[C@H]1N2C(=O)CSc1nnnn1-c1ccc(Cl)cc1 [AG-205]
σ2R [1]; against σ2R, read-out: Kd against σ2R
  Kd: ~1000 nM
σ2R [1]; displacing DTG, no unit and reference not given
  Ki: ~1260 nM

## COc1cc2c(cc1OC)CN(CCCCNC(=O)c1cc(C)ccc1OC)CC2 [RHM-1]
σ2R [1]; [6]
  Kd: ~0.66 nM

## COc1cc2c(cc1OC)CN(CCCCNC(=O)c1cc(I)cc(OC)c1OC)CC2 [RHM-4, N-(4-(6,7-dimethoxy-3,4-dihydroisoquinolin-2(1H)-yl)butyl)-2,3-dimethoxy-5-iodo-benzamide]
HeLa cells
  effect on uptake of LDL labeled with [3H]cholesterol: blocking the uptake of LDL
σ2R [1]; [6]
  Kd: ~0.2 nM

## COc1ccc(C)cc1NC(=O)OC1CC2CCCC(C1)N2CCCCCCCCCCN (stereo not drawn) [SW43]
σ2R [1]; [6]
  Kd: ~12 nM

## Cc1ccccc1N=C(N)Nc1ccccc1C [[^3H]DTG]
[2]
  binding to TMEM97 KO HeLa cells: large, but incomplete, reduction
[2]; read-out: Kd
  Kd: 302 ± 80.2 nM
[3]; read-out: Kd
  Kd: 403 ± 110 nM

## COc1cc2c(cc1OC)CN(CCCCNC(=O)c1cc(I)cc(OC)c1OC)CC2 [[^125I]RHM-4, [^125I]N-(4-(6,7-dimethoxy-3,4-dihydroisoquinolin-2(1 H)-yl)butyl)-2,3-dimethoxy-5-iodo-benzamide]
σ2R [4]; Scramble/Cas9 control HeLa cell membranes, saturation binding, 1 μM (+)-pentazocine to mask σ1R for [3H]DTG
  Kd: 0.88 ± 0.04 nM
σ2R [4]; [7]
  Kd: 1.1 ± 0.2 nM
σ2R [5]; saturation binding
  Kd: 2.66 ± 0.12 nM

## COc1cc2c(cc1OC)CN(CCCCNC(=O)c1cc([125I])cc(OC)c1OC)CC2 [[^125I]RHM-4, [^125I]N-(4-(6,7-dimethoxy-3,4-dihydroisoquinolin-2(1 H)-yl)butyl)-2,3-dimethoxy-5-iodo-benzamide]
σ2R [4]; Scramble/Cas9 control HeLa cell membranes
  Bmax: 2545 ± 37 fmol/mg
σ2R [4]; [7]
  Bmax: 2234.0 fmol/mg
σ2R [5]
  Bmax: 2475 ± 51 fmol/mg
[2]
  binding to TMEM97 KO HeLa cells: complete reduction in binding
  Kd: N.B.
[3]
  Kd: N.B.
